Experimental data reported in paper PMC2861356 (Clinical cancer research : an official journal of the …, 2009).
Where two headings read alike, the source gives them in different places.

Assays:
[1] = tested on: imatinib-resistant gastrointestinal stromal tumors (GIST); test: Tumor response; format: in vivo, human
[2] = tested on: patients with advanced imatinib-resistant gastrointestinal stromal tumors (GIST)
clinical [3] = conditions: human, serum, oral
[4] = Nilotinib serum pharmacokinetics at steady-state
[5] = tested on: surgically incurable GIST; conditions: cited from earlier work
clinical [6] = conditions: human, plasma, oral; for Cmax: Imatinib Cmax, mean ± SD; for Tmax: Imatinib tmax, median (range)
GIST = GIST after imatinib; cited from earlier work
[7] = Cohort 2 (n=6), imatinib 400 mg bid with nilotinib 200 mg qd, Day 8
[8] = 400 mg, Cohort 3 (n=7), imatinib 400 mg bid alone, Day -1
[9] = 400 mg, Cohort 3 (n=7), imatinib 400 mg bid with nilotinib 400 mg qd, Day 8

Structure (SMILES): Cc1cn(-c2cc(NC(=O)c3ccc(C)c(Nc4nccc(-c5cccnc5)n4)c3)cc(C(F)(F)F)c2)cn1 [Nilotinib]
- Best overall response: Complete response ([1]; Nilotinib 400 mg bid n=18): 0 n (%)
- Best overall response: Partial response ([1]; Nilotinib 400 mg bid n=18): 1 (6) n (%)
- Best overall response: Progressive disease ([1]; Nilotinib 400 mg bid n=18): 2 (11) n (%)
- Best overall response: Stable disease ([1]; Nilotinib 400 mg bid n=18): 13 (72) n (%)
- Best overall response: Unknown (could not be classified) ([1]; Nilotinib 400 mg bid n=18): 1 (6) n (%)
- Progression-free survival, Kaplan-Meier rate at 4 months ([1]; Nilotinib 400 mg bid n=18): 59%
- Progression-free survival, Kaplan-Meier rate at 6 months ([1]; Nilotinib 400 mg bid n=18): 47%
- Progression-free survival, median ([1]; Nilotinib 400 mg bid n=18): 168 days
- Progression-free survival, range ([1]; Nilotinib 400 mg bid n=18): 1 to 393 days
- Patients with stable disease ([1]; all cohorts): Thirty-eight
- Discontinuation of study for disease progression ([1]; all cohorts, n=32): 60%
- Progression-free survival, range ([1]; all patients): 1 to 393 days
- Median progression-free survival ([1]; entire group, all patients): 134 days
- Stable disease lasting >6 months ([1]; single-agent nilotinib group, 5 patients): 28%
- Stable disease lasting >4 months ([1]; single-agent nilotinib group, 9 patients): 50%
- Discontinuation of study for death ([2]; all cohorts, n=2): 4%
- Abdominal pain, overall frequency of AE ([2]; human, in vivo): 36%
- Discontinuation of study for AEs ([2]; human, in vivo): 6%
- Fatigue, overall frequency of AE ([2]; human, in vivo): 38%
- Grade 3 elevations of AST or ALT ([2]; human, in vivo): < 2%
- Grade 3 or 4 laboratory abnormality: hyperbilirubinemia ([2]; human, in vivo): 8%
- Grade 3 or 4 toxicities, patients overall ([2]; human, in vivo): 49%
- Nausea, overall frequency of AE ([2]; human, in vivo): 36%
- Post-baseline QTcF interval >480 msec ([2]; human, in vivo): 13%
- QTcF >500 msec ([2]; human, in vivo): no QTcF >500 msec was reported
- Rash, overall frequency of AE ([2]; human, in vivo): 40%
- Severe AEs (grade 3 or 4): abdominal pain ([2]; human, in vivo): 13%
- Dose deemed appropriate for Phase II studies ([2]; human, in vivo, 28 days): 400 mg bid
- Dose-limiting toxicity: grade 3 hyperbilirubinemia, frequency ([2]; human, in vivo, 28 days): 6%
- Thrombocytopenia episodes ([2]; in vivo): no episodes of thrombocytopenia
- AUC(0-t) (clinical [3]): 13600 ± 6620 ng·h/mL
- Cmax (clinical [3]; 400 mg bid): 1640 ± 828 ng/mL
- Tmax (clinical [3]; 400 mg bid): 2.8 h
- Slope of Cavg versus total nilotinib daily dose (power model) ([4]; combination cohorts): 0.946
- Slope of Cmax versus total nilotinib daily dose (power model) ([4]; combination cohorts): 0.881
- Nilotinib AUC0-t higher than in single-agent cohort ([4]; nilotinib 400 mg bid combination cohorts, second value): 18%
- Nilotinib oral clearance, mean CL/F across the combination groups ([4]; nilotinib with imatinib, 4 combination cohorts): 19.1 to 25.6 L/h

Structure (SMILES): Cc1ccc(NC(=O)c2ccc(CN3CCN(C)CC3)cc2)cc1Nc1nccc(-c2cccnc2)n1 [Imatinib]
- Imatinib Cavg, mean ± SD (Cohort 2 (n=6), imatinib 400 mg bid alone, Day -1): 2381 ± 1181 ng/mL
- Imatinib Cavg, mean ± SD [7]: 2768 ± 1039 ng/mL
- Imatinib Cavg, mean ± SD (Cohort 3 (n=7), imatinib 400 mg bid alone, Day -1): 3594 ± 2195 ng/mL
- Imatinib Cavg, mean ± SD (Cohort 3 (n=7), imatinib 400 mg bid with nilotinib 400 mg qd, Day 8): 3735 ± 1212 ng/mL
- Imatinib Cavg, mean ± SD (Cohort 4 (n=5), imatinib 400 mg bid alone, Day -1): 3556 ± 1523 ng/mL
- Imatinib Cavg, mean ± SD (Cohort 4 (n=5), imatinib 400 mg bid with nilotinib 400 mg bid, Day 8): 4285 ± 2325 ng/mL
- Patients with primary resistance within the first 6 months of therapy ([5]; estimated): 5-14%
- Median time of therapy until secondary resistance ([5]; most patients): 2 years
- Median survival ([5]; surgically incurable GIST): ~5 years
- Tumor control rates ([5]; surgically incurable GIST): > 80%
- Cmax (clinical [6]; 400 mg, Cohort 2 (n=6), imatinib 400 mg bid alone, Day -1): 2770 ± 1140 ng/mL
- Cmax (clinical [6]; [8]): 4020 ± 2170 ng/mL
- Cmax (clinical [6]; [9]): 4200 ± 1120 ng/mL
- Cmax (clinical [6]; 400 mg, Cohort 4 (n=5), imatinib 400 mg bid alone, Day -1): 4170 ± 1760 ng/mL
- Cmax (clinical [6]; 400 mg, Cohort 4 (n=5), imatinib 400 mg bid with nilotinib 400 mg bid, Day 8): 5070 ± 2760 ng/mL
- Tmax (clinical [6]; [8]): 4.8 h
- Tmax (clinical [6]; [9]): 2.4 h
- Cmax (clinical [6]; [7]): 3370 ± 1120 ng/mL
- Tmax (clinical [6]; [7]): 2.9 h

Structure (SMILES): CCN(CC)CCNC(=O)c1c(C)[nH]c(/C=C2\C(=O)Nc3ccc(F)cc32)c1C [Sunitinib]
- Duration of benefit of second-line therapy (GIST): approximately 9 months
